Assay type in all cases: biochemical
For assay [1], the target named is T1, recombinant alpha-glucosidase II (murine full-length glucosidase II, alpha and beta subunits, Glu 2) (Mus musculus, UniProt Q8BHN3).
T1 construct: made in house; host or cells: HEK-293T cells transduced with BacMam viruses (75% alpha, 25% beta); protein harvested from culture supernatant
As to the kind of experiment: Alpha-glucosidase II assay (4-methylumbelliferyl-alpha-D-pyranoside substrate, fluorescence). The conditions noted are these: Glucosidase 2; read-out: Glu2 IC50.

Assay [2] deals with recombinant human GAA (acid alpha-glucosidase) (Homo sapiens, UniProt P10253). As to the kind of experiment: Acid alpha-glucosidase (GAA) assay (4-methylumbelliferyl-alpha-D-pyranoside substrate, fluorescence). In a few lines: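 Recombinant human enzyme preincubated 60 min at 37 °C with compound dilutions, then 4-methylumbelliferyl-alpha-D-pyranoside substrate added for 20 min at 37 °C. Stopped with glycine/NaOH pH 10; methylumbelliferone fluorescence (ex 365, em 440 nm) versus untreated enzyme; IC50 by 4-PL fit.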

For assay [3], the target named is T2, recombinant human GBA (beta-glucocerebrosidase) (Homo sapiens, UniProt P04062).
T2 sequence (P04062 40-536): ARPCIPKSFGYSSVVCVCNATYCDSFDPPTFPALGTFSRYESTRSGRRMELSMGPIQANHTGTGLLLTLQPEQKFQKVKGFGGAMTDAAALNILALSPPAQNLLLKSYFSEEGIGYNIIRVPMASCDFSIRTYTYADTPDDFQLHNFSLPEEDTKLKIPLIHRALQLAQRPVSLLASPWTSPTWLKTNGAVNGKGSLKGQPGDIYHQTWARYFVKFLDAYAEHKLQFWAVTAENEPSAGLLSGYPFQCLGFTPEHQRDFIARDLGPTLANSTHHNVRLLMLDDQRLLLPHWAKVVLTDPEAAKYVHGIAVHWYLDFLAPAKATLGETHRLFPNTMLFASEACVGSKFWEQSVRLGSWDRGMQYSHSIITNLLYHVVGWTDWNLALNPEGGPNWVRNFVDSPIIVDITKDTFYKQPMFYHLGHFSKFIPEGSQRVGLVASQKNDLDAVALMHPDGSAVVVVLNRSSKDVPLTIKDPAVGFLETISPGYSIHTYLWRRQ
Put plainly: Beta-glucocerebrosidase (GBA, glucosylceramidase) assay (4-methylumbelliferyl-beta-D-pyranoside substrate, fluorescence). In a few lines:
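Recombinant human GBA preincubated with compound dilutions 60 min at 37 °C, then 4-methylumbelliferyl-beta-D-pyranoside added for 60 min at 37 °C. Stopped at pH 10 (glycine/NaOH); fluorescence ex 365/em 440 nm. IC50 from 4-PL fit of inhibition relative to untreated enzyme.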

Assay [4] deals with rat maltase (partially purified alpha-glucosidase from intestinal rat powder). Put plainly: Intestinal alpha-glucosidase assay, maltose substrate (Glucose GO Kit). An outline of the steps: (§1)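 Enzyme from intestinal rat powder, partially purified, is exposed to compound for 60 min at 37 °C. Disaccharide substrate (maltose or sucrose respectively) then reacts 30 min at 37 °C. Heat-stopped samples are assayed for glucose, and percent inhibition versus concentration gives IC50 via 4-PL.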

Assay [5] addresses rat sucrase (partially purified alpha-glucosidase from intestinal rat powder) (Rattus norvegicus, UniProt P23739). Put plainly: Intestinal alpha-glucosidase assay, sucrose substrate (Glucose GO Kit). In a few lines:
as §1

Structures are written as SMILES. pIC50: −log10 of the molar value.

T1 sequence (O08795 15-521): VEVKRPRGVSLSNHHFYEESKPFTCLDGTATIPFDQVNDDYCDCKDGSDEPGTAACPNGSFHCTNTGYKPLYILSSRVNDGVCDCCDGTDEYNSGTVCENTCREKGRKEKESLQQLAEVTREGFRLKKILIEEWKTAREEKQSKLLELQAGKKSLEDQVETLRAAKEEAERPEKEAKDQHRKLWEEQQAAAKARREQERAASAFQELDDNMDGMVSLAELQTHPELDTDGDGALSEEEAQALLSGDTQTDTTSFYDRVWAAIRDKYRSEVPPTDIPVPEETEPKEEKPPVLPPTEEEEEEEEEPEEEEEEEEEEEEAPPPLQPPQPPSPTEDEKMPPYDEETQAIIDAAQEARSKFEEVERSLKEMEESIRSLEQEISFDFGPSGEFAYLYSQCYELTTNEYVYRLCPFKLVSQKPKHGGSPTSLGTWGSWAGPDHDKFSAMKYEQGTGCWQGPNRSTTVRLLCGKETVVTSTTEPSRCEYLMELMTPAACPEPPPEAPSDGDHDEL
T1 sequence (Q8BHN3 33-944): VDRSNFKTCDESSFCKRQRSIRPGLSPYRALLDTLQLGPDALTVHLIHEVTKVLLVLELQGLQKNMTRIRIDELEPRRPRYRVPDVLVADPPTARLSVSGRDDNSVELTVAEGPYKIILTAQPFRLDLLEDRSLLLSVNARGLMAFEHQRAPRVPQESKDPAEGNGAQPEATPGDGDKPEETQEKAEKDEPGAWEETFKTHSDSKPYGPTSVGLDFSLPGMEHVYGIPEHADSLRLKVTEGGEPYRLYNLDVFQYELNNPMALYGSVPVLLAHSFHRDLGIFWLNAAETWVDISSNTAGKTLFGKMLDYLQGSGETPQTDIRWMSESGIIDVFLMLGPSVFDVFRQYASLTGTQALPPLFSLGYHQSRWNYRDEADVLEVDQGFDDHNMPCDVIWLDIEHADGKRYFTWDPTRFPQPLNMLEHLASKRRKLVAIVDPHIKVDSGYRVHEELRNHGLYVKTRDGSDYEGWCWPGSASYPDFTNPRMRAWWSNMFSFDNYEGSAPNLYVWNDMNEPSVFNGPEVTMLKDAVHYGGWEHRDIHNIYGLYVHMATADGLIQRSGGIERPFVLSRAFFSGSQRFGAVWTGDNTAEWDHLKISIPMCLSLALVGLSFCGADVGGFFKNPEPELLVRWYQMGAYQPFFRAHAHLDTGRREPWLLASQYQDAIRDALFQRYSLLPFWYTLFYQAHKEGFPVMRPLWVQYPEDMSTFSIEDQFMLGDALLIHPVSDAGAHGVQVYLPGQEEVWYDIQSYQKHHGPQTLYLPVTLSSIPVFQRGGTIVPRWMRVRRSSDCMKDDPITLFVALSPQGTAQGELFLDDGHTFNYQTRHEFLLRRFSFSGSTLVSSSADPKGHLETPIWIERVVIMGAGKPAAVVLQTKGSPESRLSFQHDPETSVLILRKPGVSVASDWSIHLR
rat sucrase (partially purified alpha-glucosidase from intestinal rat powder), sequence (P23739 whole entry): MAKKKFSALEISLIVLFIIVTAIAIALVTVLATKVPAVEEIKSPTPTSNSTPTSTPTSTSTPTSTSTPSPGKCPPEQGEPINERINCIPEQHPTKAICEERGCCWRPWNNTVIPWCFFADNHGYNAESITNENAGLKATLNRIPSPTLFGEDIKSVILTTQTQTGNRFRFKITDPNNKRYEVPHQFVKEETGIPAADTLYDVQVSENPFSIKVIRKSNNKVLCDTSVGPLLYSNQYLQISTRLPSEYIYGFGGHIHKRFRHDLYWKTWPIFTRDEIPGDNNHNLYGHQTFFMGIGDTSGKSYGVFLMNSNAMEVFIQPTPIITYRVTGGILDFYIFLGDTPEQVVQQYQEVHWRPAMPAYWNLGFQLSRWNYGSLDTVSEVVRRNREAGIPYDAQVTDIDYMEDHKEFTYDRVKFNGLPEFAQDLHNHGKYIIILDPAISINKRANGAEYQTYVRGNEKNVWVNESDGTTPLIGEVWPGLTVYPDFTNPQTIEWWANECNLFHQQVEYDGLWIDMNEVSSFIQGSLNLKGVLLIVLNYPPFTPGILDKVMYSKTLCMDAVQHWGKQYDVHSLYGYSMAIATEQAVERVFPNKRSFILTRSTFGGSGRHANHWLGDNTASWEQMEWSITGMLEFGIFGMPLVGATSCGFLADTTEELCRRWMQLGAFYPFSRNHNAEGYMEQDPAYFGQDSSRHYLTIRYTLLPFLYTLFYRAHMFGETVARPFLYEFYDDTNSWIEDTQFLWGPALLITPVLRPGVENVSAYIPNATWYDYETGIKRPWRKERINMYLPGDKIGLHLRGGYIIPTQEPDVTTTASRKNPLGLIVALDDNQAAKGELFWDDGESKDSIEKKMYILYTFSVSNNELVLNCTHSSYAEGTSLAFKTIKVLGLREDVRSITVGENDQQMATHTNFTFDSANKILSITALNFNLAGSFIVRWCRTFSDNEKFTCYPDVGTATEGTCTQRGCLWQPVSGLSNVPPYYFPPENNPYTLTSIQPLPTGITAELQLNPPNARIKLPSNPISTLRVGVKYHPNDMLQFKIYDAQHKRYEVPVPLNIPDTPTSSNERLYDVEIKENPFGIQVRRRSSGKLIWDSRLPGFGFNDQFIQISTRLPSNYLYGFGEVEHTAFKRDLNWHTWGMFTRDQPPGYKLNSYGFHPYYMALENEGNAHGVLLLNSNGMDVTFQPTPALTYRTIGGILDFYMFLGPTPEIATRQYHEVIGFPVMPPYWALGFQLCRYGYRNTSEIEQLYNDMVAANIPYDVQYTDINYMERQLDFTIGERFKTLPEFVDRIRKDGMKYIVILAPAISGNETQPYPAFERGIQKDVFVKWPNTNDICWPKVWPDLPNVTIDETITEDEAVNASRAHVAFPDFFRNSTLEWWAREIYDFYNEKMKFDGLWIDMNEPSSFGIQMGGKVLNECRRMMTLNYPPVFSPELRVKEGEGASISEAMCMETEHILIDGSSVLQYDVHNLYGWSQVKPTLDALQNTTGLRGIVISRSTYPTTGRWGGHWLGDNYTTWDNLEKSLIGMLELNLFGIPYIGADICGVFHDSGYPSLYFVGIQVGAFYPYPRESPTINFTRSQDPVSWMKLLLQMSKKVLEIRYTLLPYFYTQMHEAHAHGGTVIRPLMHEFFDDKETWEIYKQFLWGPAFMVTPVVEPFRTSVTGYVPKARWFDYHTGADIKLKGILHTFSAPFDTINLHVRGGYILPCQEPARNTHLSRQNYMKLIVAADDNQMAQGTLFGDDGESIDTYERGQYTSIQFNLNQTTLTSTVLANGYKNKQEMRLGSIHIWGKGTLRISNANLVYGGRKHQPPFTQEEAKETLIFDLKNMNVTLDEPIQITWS

Regarding `O=[N+]([O-])c1cc(N2CCOCC2)ccc1NCc1ccc(CN2C[C@@H](O)[C@H](O)[C@@H](O)[C@@H]2CO)cc1` (stereo in doubt) [Compound 1069, (2S,3S,4S,5R)-2-(hydroxymethyl)-1-{[4-({[4-(morpholin-4-yl)-2-nitrophenyl]amino}methyl)phenyl]methyl}piperidine-3,4,5-triol], the pIC50 in assay [1] was 8.40; in assay [2] it was 7.17; in assay [3], 5.51; in assay [4] it was over 9.00; in assay [5], 8.10.

On to `CN(Cc1ccc(CN2C[C@H](O)[C@@H](O)[C@H](O)[C@H]2CO)cc1)c1cc(-c2cccnn2)cc(C2CC2)c1` [Compound 1001, (2R,3R,4R,5S)-1-{[4-({[3-cyclopropyl-5-(pyridazin-3-yl)phenyl](methyl)amino}methyl)phenyl]methyl}-2-(hydroxymethyl)piperidine-3,4,5-triol], for which the pIC50 in assay [1] was 6.36; in assay [2], 7.04; in assay [3], 4.00; in assay [4], over 9.00; in assay [5] it was 7.82.

Turning to `Cc1cc(CN2CCOCC2)cc(NCCCCCCN2C[C@H](O)[C@@H](O)[C@H](O)[C@H]2CO)c1` [Compound 1003, (2R,3R,4R,5S)-2-(hydroxymethyl)-1-[6-({3-methyl-5-[(morpholin-4-yl)methyl]phenyl}amino)hexyl]piperidine-3,4,5-triol], the pIC50 in assay [1] is 8.70; in assay [2], 6.52; in assay [3] it was 5.11; in assay [4] it was 7.68; in assay [5], 6.42.

For `Cc1cc(CN2CCOCC2)cc(NCc2ccc(CN3C[C@H](O)[C@@H](O)[C@H](O)[C@H]3CO)cc2)c1` [Compound 1005, (2R,3R,4R,5S)-2-(hydroxymethyl)-1-({4-[({3-methyl-5-[(morpholin-4-yl)methyl]phenyl}amino)methyl]phenyl}methyl)piperidine-3,4,5-triol], the pIC50 is 5.80 in assay [1]; 6.10 in assay [2]; under 4.00 in assay [3]; 7.24 in assay [4]; 6.18 in assay [5].

As to `OC[C@@H]1[C@@H](O)[C@H](O)[C@@H](O)CN1CCCCCCNc1cc(C2CC2)cc(N2CCOCC2)c1` [Compound 1006, (2R,3R,4R,5S)-1-(6-{[3-cyclopropyl-5-(morpholin-4-yl)phenyl]amino}hexyl)-2-(hydroxymethyl)piperidine-3,4,5-triol], the pIC50 is 9.00 in assay [1]; 6.91 in assay [2]; 6.21 in assay [3]; 8.00 in assay [4]; 6.94 in assay [5].

Regarding `N#Cc1cc(NCc2cccc(CN3C[C@H](O)[C@@H](O)[C@H](O)[C@H]3CO)c2)cc(-c2ccc[nH]2)c1` [Compound 1045, 3-(1H-pyrrol-2-yl)-5-{[(3-{[(2R,3R,4R,5S)-3,4,5-trihydroxy-2-(hydroxymethyl)piperidin-1-yl]methyl}phenyl)methyl]amino}benzonitrile], the pIC50 in assay [1] was 5.11; in assay [2], 5.71; in assay [3], 4.22; in assay [4] it was over 9.00; in assay [5], over 9.00.

As for `N#Cc1cc(NCc2cccc(CN3C[C@H](O)[C@@H](O)[C@H](O)[C@H]3CO)c2)cc(-c2cccnn2)c1` [Compound 1046, 3-(pyridazin-3-yl)-5-{[(3-{[(2R,3R,4R,5S)-3,4,5-trihydroxy-2-(hydroxymethyl)piperidin-1-yl]methyl}phenyl)methyl]amino}benzonitrile], the pIC50 in assay [1] is 4.75; in assay [2] it was 5.79; in assay [3], 4.06; in assay [4], 8.22; in assay [5], 7.28.

For orientation: pIC50 means the IC50 on a negative log10 scale, so that one unit is a factor of ten.
